Measured values: patent US6147097A, “Imidazole derivatives as anti-HIV agents” (Shionogi & Co., Ltd., priority 1994, dated 2000)
pIC50: −log10 of the molar value. ≈ marks a conversion by molar mass, not a printed value. Like-named read-outs stand apart in the source and are kept apart here.

Key:
[1] = target: T1, purified recombinant HIV-1 reverse transcriptase (Human immunodeficiency virus type 1 group M subtype B, UniProt P04585); test: reverse transcriptase inhibition, poly(rA)/(dT) template primer, [3H]dTTP uptake; format: biochemical
T1 construct: purified recombinant HIV-1 reverse transcriptase; made in house; host or cells: Escherichia coli
Experimental: The reverse transcriptase activity of each of the compounds synthesized in Examples was assayed by the following procedures.
Using the purified recombinant HIV-1 reverse transcriptase RT, E.C. 2.7.7.49) obtained by expression in Escherichia Coli, a 96-well plate assay system was established for assaying a large number of samples. The RT inhibitory activity was determined as follows. To 11 μl of a solution of the test inhibitor in water or MSO was added 100 μl of a reaction mixture (0.1 unit/100 μl RT, 50 mM Tris-HCl pH 8.3, 150 mM KCl, 10 mM MgCl2, 3 mM dithiothreitol, 0.1% Nonidet P-40, 10 μg/ml. poly(rA) and 10 μg/ml (dT)12-1.8 as template and primer, and 4 μM dTTP, 1 μCi/100 μl [^3 H]dTTP as substrate) and the mixture was incubated at 37° C. for 1 hour and, then, immediately cooled on ice. Using a cell harvester, the reaction mixture was transferred to a DEAE-filter mat (LKB-Pharmacia). Then, using the wash line of the cell harvester, the cells were washed twice with 5% Na2 HPO4 /H2 O and once with water and dried at 95° C. for 15 minutes. […] The inhibitory activity was expressed in percent inhibition relative to the uptake on water or DMSO control.

[2] = cytotoxicity in MT-4 cells (MTT, culture medium in place of HIV); format: cell-based; conditions: human
Experimental: (§1) The anti-HIV activity of each of the compounds produced in Examples was assayed by the following procedures. (1) Human T cell line MOLT-4 clone 8 persistently infected by HIV (HTLV-IIIB strain) was cultured in an RPMI-1640 medium supplemented with 10% fetal calf serum, the culture supernatant was filtered, and the titer of virus was determined; the culture supernatant was stored at -80° C. On the other hand, the test compound was diluted with the above culture medium to predetermined concentrations and distributed in 50 μl aliquots into a 96-well microtiter plate. Then, d suspension of MT-4 cells was added in 100 μl aliquots (3.5×10^4 cells per well) and then the above HIV-containing supernatant diluted with the above culture medium was added, 50 μl (60 pfu (plaque forming units)) per well. (2) The plate was incubated in a CO2 incubator at 37° C. for 5 days. Then, 30 μl/well of 3-(4,5-dimethyl thiazol-2-yl)-2,5-diphenyltetrazolium bromide (MTT) (5 mg/ml PBS) was added and the incubation was further continued for 1 hour. The surviving cells reducing MTT yield precipitation of formazan. Therefore, 150 μl portions of the culture supernatant were removed from all wells and, instead, 150 μl of a solution (10% Triton X-100 and 0.4% (v/v) HCl-added isopropyl alcohol) was added. The plate was shaken on a plate mixer to dissolve the formazan. The OD of formazan was measured with a microreader at 560 nm arid 690 nm (reference wavelength) and the result was compared with that of control.
The cytotoxicity of each of the compounds produced in Examples was assayed. In place of the HIV-containing supernatant (the virus suspension) in (1) in Test Example 1, 50 μl of the culture medium was added to each well, and the cytotoxicity was determined in the same manner as that for (2) in Test Example 1.

HIV (HTLV-IIIB strain) = test: microbe, parasite or virus in culture; format: cell-based
Experimental: as §1, with “(1) Human T cell line MOLT-4 clone 8 persistently infected by HIV (HTLV-IIIB strain) was cultured in an RPMI-1640 medium supplemented with 10% fetal calf serum, the culture supernatant was filtered, and the titer of virus was determined; the culture supernatant was stored at -80° C.” left out, “formazan.” for “formazan. The OD of formazan was measured with a microreader at 560 nm arid 690 nm (reference wavelength) and the result was compared with that of control.”

[3] = Human immunodeficiency virus 1, IIIB, MT4, 120 h, MT-4 cells, 60 pfu HIV per well, 37° C., 5 days, MTT, Tables 1 and 2, read-out: EC50
[4] = MT-4 cells, no virus, 37° C., 5 days, MTT, Table 3, read-out: CC50

Compound | pIC50 [1] | CC50 at 120 h ([2]; mt-4 cells) | EC50 (HIV (HTLV-IIIB strain); [3]) | CC50 at 120 h [2, 4] | EC50 (HIV (HTLV-IIIB strain); Human immunodeficiency virus 1, IIIB, MT4, 120 h) | RT IC50 ([1]; pH 8.3, 37° C., 1 hour, Tables 5 and 6) | EC50 (HIV (HTLV-IIIB strain); MT-4 cells, 60 pfu HIV per well, 37° C., 5 days, MTT, Tables 1 and 2)
CC(C)c1nc(CCO)n(Cc2ccncc2)c1Sc1cc(Cl)cc(Cl)c1 [Compound 123b, 2-[5-(3,5-dichlorophenylthio)-4-isopropyl-1-(pyridin-4-ylmethyl)-1H-imidazol-2-yl]ethanol] | 6.45 | 12.5 to 25 µg/mL (≈ 29.6 to 59.2 µM) | 0.003 µg/mL (≈ 0.0071 µM) | – | – | – | –
Cc1cc(C)cc([S+]([O-])c2c(C(C)C)nc(CO)n2C)c1 (centres unmarked) [Compound I-106, [5-(3,5-dimethylphenylsulfinyl)-4-isopropyl-1-methyl-1H-imidazol-2-yl]methanol] | < 3.49 | – | 1 to 10 µg/mL (≈ 3.26 to 32.6 µM) | 100 µg/mL (≈ 326 µM) | – | – | –
Cc1cc(C)cc(Sc2c(C(C)C)nc(C)n2Cc2ccccc2)c1 [Compound I-4, 1-benzyl-5-(3,5-dimethylphenylthio)-4-isopropyl-2-methylimidazole] | 5.31 | – | 0.016 µg/mL (≈ 0.0456 µM) | 12.5 µg/mL (≈ 35.7 µM) | – | – | –
CC(C)c1nc(CO)n(Cc2ccccc2[N+](=O)[O-])c1Sc1cc(Cl)cc(Cl)c1 [Compound 103c, 5-(3,5-dichlorophenylthio)-2-hydroxymethyl-4-isopropyl-1-(o-nitrobenzyl)-1H-imidazole] | 4.24 | 6.3 to 12.5 µg/mL (≈ 13.9 to 27.6 µM) | 0.06 to 0.13 µg/mL (≈ 0.133 to 0.287 µM) | – | – | – | –
CCn1c(CN)nc(C(C)C)c1Sc1cccc(Cl)c1 [Compound I-73, 2-aminomethyl-5-(3-chlorophenylthio)-1-ethyl-4-isopropylimidazole] | 6.09 | 6.3 µg/mL (≈ 20.3 µM) | 0.016 µg/mL (≈ 0.0516 µM) | – | – | – | –
CCn1c(COC(N)=O)nc(C(C)C)c1Sc1cccc(Cl)c1 [Compound I-53, 2-carbamoyloxymethyl-5-(3-chlorophenylthio)-1-ethyl-4-isopropyl-1H-imidazole] | 6.23 | – | – | 10 to 100 µg/mL (≈ 28.3 to 283 µM) | 0.004 to 0.008 µg/mL (≈ 0.0113 to 0.0226 µM) | – | –
CC(C)c1nc(CN)n(C)c1Cc1cc(Cl)cc(Cl)c1 [Compound I-101, 2-aminomethyl-5-(3,5-dichlorobenzyl)-4-isopropyl-1-methyl-1H-imidazole] | 4.09 | – | 1 µg/mL (≈ 3.2 µM) | 10 to 100 µg/mL (≈ 32 to 320 µM) | – | – | –
CC(C)c1nc(CNCCO)n(C)c1Sc1cc(Cl)cc(Cl)c1 [Compound I-79, 2-{[5-(3,5-dichlorophenylthio)-4-isopropyl-1-methyl-1H-imidazol-2-yl]methylamino} ethanol] | 4.46 | – | 0.25 µg/mL (≈ 0.668 µM) | 1 to 10 µg/mL (≈ 2.67 to 26.7 µM) | – | – | –
CC(C)c1nc(CNS(C)(=O)=O)n(C)c1Sc1cc(Cl)cc(Cl)c1 [Compound I-87, 5-(3,5-dichlorophenylthio)-4-isopropyl-2-methanesulfonylaminomethyl-1-methyl-1H-imidazole] | < 3.61 | – | 0.5 to 1 µg/mL (≈ 1.22 to 2.45 µM) | 10 to 100 µg/mL (≈ 24.5 to 245 µM) | – | – | –
CC(C)c1nc(CCCO)n(Cc2ccncc2)c1Sc1cc(Cl)cc(Cl)c1 [Compound 137c, 3-(5-(3,5-dichlorophenylthio)-4-isopropyl-1-(pyridin-4-ylmethyl)-1H-imidazol-2-yl)-propan-1-ol] | 6.15 | 6.3 to 12.5 µg/mL (≈ 14.4 to 28.6 µM) | 0.003 to 0.005 µg/mL (≈ 0.00687 to 0.0115 µM) | – | – | – | –
CCCn1c(CO)nc(C(C)C)c1Sc1cccc(Cl)c1 [Compound I-29, [5-(3-chlorophenylthio)-4-isopropyl-1-n-propyl-1H-imidazol-2-yl]methanol] | 5.73 | – | 0.016 to 0.03 µg/mL (≈ 0.0492 to 0.0923 µM) | 12.5 µg/mL (≈ 38.5 µM) | – | – | –
Cc1ncccc1Cn1c(CO)nc(C(C)C)c1Sc1cc(Cl)cc(Cl)c1 [Compound 119a, 5-(3,5-dichlorophenylthio)-2-hydroxymethyl-4-isopropyl-1-(2-methylpyridin-3-ylmethyl)-1H-imidazole] | 4.83 | 12.5 µg/mL (≈ 29.6 µM) | < 0.008 µg/mL | – | – | – | –
Cc1cc(C)cc(S(=O)(=O)c2c(C(C)C)nc(C)n2C)c1 [Compound I-105, 5-(3,5-dimethylphenylsulfonyl)-4-isopropyl-1,2-dimethyl-1H-imidazole] | 3.77 | – | 0.5 µg/mL (≈ 1.63 µM) | 50 to 100 µg/mL (≈ 163 to 326 µM) | – | – | –
CC(C)c1nc(CNC(N)=O)n(C)c1Sc1cc(Cl)cc(Cl)c1 [Compound I-90, 5-(3,5-dichlorophenylthio)-4-isopropyl-1-methyl-2-ureidomethyl-1H-imidazole] | 5.17 | – | 0.13 µg/mL (≈ 0.348 µM) | 10 to 100 µg/mL (≈ 26.8 to 268 µM) | – | – | –
CCn1c(CCO)nc(C(C)C)c1Sc1cc(Cl)cc(Cl)c1 [Compound 123a, 2-[5-(3,5-dichlorophenylthio)-1-ethyl-4-isopropyl-1H-imidazol-2-yl]ethanol] | 6.38 | 6.3 to 12.5 µg/mL (≈ 17.5 to 34.8 µM) | 0.0006 µg/mL (≈ 0.00167 µM) | – | – | – | –
CC(C)c1nc(CO)n(CF)c1Sc1cc(Cl)cc(Cl)c1 [Compound I-34, [1-fluoromethyl-5-(3,5-dichlorophenylthio)-4-isopropyl-1H-imidazol-2-yl]methanol] | 5.40 | 13.5 µg/mL (≈ 38.7 µM) | 0.006 µg/mL (≈ 0.0172 µM) | – | – | – | –
CC(C)c1nc(CCOC(N)=O)n(Cc2cccc(N)c2)c1Sc1cc(Cl)cc(Cl)c1 [Compound I-142, 1-(m-aminobenzyl)-2-(2-carbamoyloxyethyl)-5-(3,5-dichlorophenylthio)-4-isopropyl-1H-imidazole] | 4.60 | 6.3 to 12.5 µg/mL (≈ 13.1 to 26.1 µM) | 0.016 to 0.03 µg/mL (≈ 0.0334 to 0.0626 µM) | – | – | – | –
CC(C)c1nc(COC(N)=O)n(CCc2ccccn2)c1Sc1cc(Cl)cc(Cl)c1 [Compound I-129, 2-carbamoyloxymethyl-5-(3,5-dichlorophenylthio)-4-isopropyl-1-(2-(2-pyridyl)ethyl)-1H-imidazole] | 4.11 | 12.5 to 25 µg/mL (≈ 26.9 to 53.7 µM) | 0.06 µg/mL (≈ 0.129 µM) | – | – | – | –
CC(C)c1nc(CN)n(Cc2ccccc2)c1Sc1cc(Cl)cc(Cl)c1 [Compound I-70, 2-aminomethyl-1-benzyl-5-(3,5-dichlorophenylthio)-4-isopropylimidazole] | 5.35 | – | 0.03 µg/mL (≈ 0.0738 µM) | 6.3 to 12.5 µg/mL (≈ 15.5 to 30.8 µM) | – | – | –
CCn1c(CCOCc2ccccc2)nc(C(C)C)c1Sc1cc(Cl)cc(Cl)c1 [Compound 122a] | 4.37 | 6.3 µg/mL (≈ 14 µM) | 0.13 µg/mL (≈ 0.289 µM) | – | – | – | –
Cc1nc(C(C)C)c(Sc2cc(Cl)cc(Cl)c2)n1C [Compound I-1, 5-(3,5-dichlorophenylthio)-1,2-dimethyl-4-isopropyl-1H-imidazole] | 5.42 | – | 0.008 µg/mL (≈ 0.0254 µM) | 6.3 to 12.5 µg/mL (≈ 20 to 39.6 µM) | – | – | –
CC(C)c1nc(CN)n(C)c1Sc1ccccc1 [Compound I-74, 2-aminomethyl-4-isopropyl-1-methyl-5-phenylthioimidazole] | 4.66 | – | 0.25 µg/mL (≈ 0.956 µM) | 12.5 to 25 µg/mL (≈ 47.8 to 95.6 µM) | – | – | –
CC(C)c1nc(CO)n(Cc2ccc(N)cc2)c1Sc1cc(Cl)cc(Cl)c1 [Compound 104a, 1-(p-aminobenzyl)-5-(3,5-dichlorophenylthio)-2-hydroxymethyl-4-isopropyl-1H-imidazole] | 5.51 | 12.5 to 25 µg/mL (≈ 29.6 to 59.2 µM) | < 0.008 µg/mL | – | – | – | –
CC(C)c1nc(CCCOC(N)=O)n(C)c1Sc1cc(Cl)cc(Cl)c1 [Compound I-148, 2-(3-carbamoyloxypropyl)-5-(3,5-dichlorophenylthio)-4-isopropyl-1-methyl-1H-imidazole] | 6.05 | 6.3 to 12.5 µg/mL (≈ 15.7 to 31.1 µM) | 0.005 to 0.01 µg/mL (≈ 0.0124 to 0.0249 µM) | – | – | – | –
2-aminoethyl-1-n-butyl-5-(3,5-dichlorophenylthio)-4-isopropyl-1H-imidazole [Compound I-68] | – | – | – | – | – | 0.61 µg/mL | 0.016 µg/mL
